The nature of this data set: in vitro. Particulars: human, hela cells, % viability.
With `Cc1cccc(-c2ccc3c(c2)C(=O)N2CC[C@H](NC(=O)NC(C)C)C[C@H]2C(=O)N3)c1C` [CBK289567], the viability at 28.5 h, 10 µM was 97.9%.

Take `CC(C)NC(=O)C[C@@H]1c2nc(-c3ccccc3)sc2C[C@@H]2[C@](C)(CO)[C@H](O)CC[C@]21C` [CBK289570]: the viability at 28.5 h, 10 µM is 90.6%.

Regarding `Cc1nc2c(s1)C[C@@H]1[C@](C)(CO)[C@H](O)CC[C@@]1(C)[C@@H]2CC(=O)O` [CBK289571], the viability at 28.5 h, 10 µM amounted to 93.3%.

`COc1ccc(CNC(=O)C[C@@H]2[C@H](O)CCC3[C@]4(C)CO[C@@H](CN)O[C@@H]4CC[C@]32C)cc1` (some centres unmarked) [CBK289575]: the viability at 28.5 h, 10 µM was found to be 109%.

Take `COc1cccc(NC(=O)O[C@@H]2CC[C@]3(C)C(CC[C@H]4OC(=O)C[C@H]43)[C@]2(C)CO)c1` (some centres unmarked) [CBK289576]: the viability at 28.5 h, 10 µM was found to be 95.2%.

With `COC(=O)[C@@H]1CN(C(=O)c2ccc(OC)cc2)CCN1C(C)=O` [CBK289578], the viability at 28.5 h, 10 µM came out at 97.5%.

For `O=C(O)CCCC(=O)N1CCN2C(=O)c3cc(Br)ccc3NC(=O)[C@@H]2C1` [CBK289581], the viability at 28.5 h, 10 µM is 100%.

`COCC(=O)N1CCN2C(=O)c3ccccc3NC(=O)[C@@H]2C1` [CBK289582]: the viability at 28.5 h, 10 µM turned out to be 90.6%.

With `COc1ccc(-c2ccc3c(c2)C(=O)N2CCN(C(=O)CC(C)(C)C)C[C@@H]2C(=O)N3)cc1` [CBK289584], the viability at 28.5 h, 10 µM came to 94.6%.

For `COCC(=O)N1CCN2C(=O)c3cc(-c4ccccc4F)ccc3NC(=O)[C@H]2C1` [CBK289587], the viability at 28.5 h, 10 µM amounted to 82.4%.

Take `O=C1Nc2ccc(-c3ccccc3F)cc2C(=O)N2CCN(C(=O)C3CCNCC3)C[C@H]12` [CBK289592]: the viability at 28.5 h, 10 µM amounted to 87.3%.

For `O=C1Nc2ccc(-c3ccc4c(c3)OCO4)cc2C(=O)N2CCN(C(=O)CO)C[C@H]12` [CBK289593], the viability at 28.5 h, 10 µM came out at 85.6%.

Turning to `O=C1Nc2ccc(-c3ccc(Cl)cc3)cc2C(=O)N2CCN(C(=O)CO)C[C@H]12` [CBK289594], the viability at 28.5 h, 10 µM was determined as 96.1%.

Regarding `CCCNC(=O)N1CCN2C(=O)c3cc(-c4ccccc4F)ccc3NC(=O)[C@@H]2C1` [CBK289595], the viability at 28.5 h, 10 µM amounted to 95.5%.

Consider `CC(=O)N1CCN2C(=O)c3cc(-c4ccc5c(c4)OCO5)ccc3NC(=O)[C@H]2C1` [CBK289597], for which the viability at 28.5 h, 10 µM is 90.1%.

In the case of `O=C1N[C@@H](CC2CCCCC2)C(=O)N2CCN(C(=O)c3cccc(F)c3)C[C@H]12` [CBK289599], the viability at 28.5 h, 10 µM was 115%.

With `O=C1N[C@@H](Cc2ccc(F)cc2)C(=O)N2CCN(C(=O)c3cccc(F)c3)C[C@H]12` [CBK289600], the viability at 28.5 h, 10 µM is 111%.

As to `N#Cc1ccc(C(=O)N2CCN3C(=O)[C@H](Cc4ccc(F)cc4)NC(=O)[C@H]3C2)cc1` [CBK289602], the viability at 28.5 h, 10 µM amounted to 106%.

In the case of `COc1ccc(C[C@@H]2NC(=O)[C@H]3CN(C(=O)c4cccc(F)c4)CCN3C2=O)cc1` [CBK289604], the viability at 28.5 h, 10 µM was determined as 88.8%.

With `COC(=O)[C@@H]1CN(C(=O)C2CCCC2)CCN1C(=O)c1cccs1` [CBK289609], the viability at 28.5 h, 10 µM stood at 93.5%.

For `COC(=O)[C@@H]1CN(C(=O)c2cccs2)CCN1C(=O)c1cccnc1` [CBK289610], the viability at 28.5 h, 10 µM was 87%.

Turning to `COC(=O)[C@@H]1CN(C(=O)Nc2ccccc2)CCN1S(C)(=O)=O` [CBK289611], the viability at 28.5 h, 10 µM came to 96.9%.

On to `COc1ccc(C[C@@H]2NC(=O)[C@H]3CN(C(=O)Nc4cccc(OC)c4)CCN3C2=O)cc1` [CBK289617], for which the viability at 28.5 h, 10 µM worked out at 98.9%.

Consider `COc1cccc(NC(=O)N2CCN3C(=O)[C@H](Cc4ccc(O)cc4)NC(=O)[C@@H]3C2)c1` [CBK289618], for which the viability at 28.5 h, 10 µM amounted to 99%.

Turning to `C=CCO[C@@H]1C[C@H]2C(=O)N3CCN(C(=O)NC4CCCCC4)C[C@H]3C(=O)N2C1` [CBK289619], the viability at 28.5 h, 10 µM was found to be 82.5%.

For `COC(=O)[C@@H](C)NC(=O)[C@@H]1CN(C(=O)NC(C)C)CCN1C(=O)C1CCCCC1` [CBK289622], the viability at 28.5 h, 10 µM is 90.7%.

`COC(=O)[C@@H](C)NC(=O)[C@@H]1CN(C(=O)NC(C)C)CCN1C(=O)c1cccs1` [CBK289624]: the viability at 28.5 h, 10 µM is 110%.

Consider `COC(=O)[C@@H](C)NC(=O)[C@@H]1CN(C(=O)c2cccc(F)c2)CCN1S(C)(=O)=O` [CBK289625], for which the viability at 28.5 h, 10 µM amounted to 96.8%.

Regarding `COC(=O)[C@@H](C)NC(=O)[C@H]1CN(S(=O)(=O)c2ccccc2)CCN1C(C)=O` [CBK289626], the viability at 28.5 h, 10 µM was found to be 88.2%.

Take `COC(=O)[C@@H](C)NC(=O)[C@H]1CN(C(=O)Nc2ccccc2)CCN1C(C)=O` [CBK289627]: the viability at 28.5 h, 10 µM is 86.3%.

For the compound `COC(=O)[C@@H](C)NC(=O)[C@H]1CN(C(=O)c2cccnc2)CCN1C(=O)c1cccs1` [CBK289628], the viability at 28.5 h, 10 µM was found to be 82.4%.

Take `COC(=O)[C@@H](C)NC(=O)[C@H]1CN(C(=O)Nc2ccccc2)CCN1C(=O)c1cccs1` [CBK289629]: the viability at 28.5 h, 10 µM was 97.2%.

For `COC(=O)[C@@H](C)NC(=O)[C@H]1CN(C(=O)c2cccnc2)CCN1C(=O)NC(C)C` [CBK289630], the viability at 28.5 h, 10 µM amounted to 104%.

Take `COC(=O)[C@@H](C)NC(=O)[C@H]1CN(C(=O)Nc2ccccc2)CCN1C(=O)NC(C)C` [CBK289631]: the viability at 28.5 h, 10 µM was 113%.

On to `C[C@@H](c1ccccc1)N1C(=O)[C@@H]2CN(C(=O)CC3(CC(=O)O)CCCC3)CCN2C1=O` [CBK289637], for which the viability at 28.5 h, 10 µM turned out to be 88.7%.

Regarding `C[C@H](c1ccccc1)N1C(=O)[C@@H]2CN(C(=O)CC(C)(C)CC(=O)O)CCN2C1=O` [CBK289639], the viability at 28.5 h, 10 µM came to 114%.

In the case of `O=C1[C@H]2CN(S(=O)(=O)c3ccc(F)cc3)CCN2C(=O)N1CCO` [CBK289640], the viability at 28.5 h, 10 µM came to 84.5%.

For `COCC(=O)N1CCN2C(=O)N(Cc3ccccc3)C(=O)[C@H]2C1` [CBK289641], the viability at 28.5 h, 10 µM was determined as 91.4%.

In the case of `c1ccc(-c2cc(CC3(NCC4CCCCC4)COC3)no2)nc1` [CBK289644], the viability at 28.5 h, 10 µM came out at 93%.

For `CN(Cc1ccccc1)Cc1cc(CC2(NCc3ccccc3)COC2)no1` [CBK289645], the viability at 28.5 h, 10 µM was found to be 88.9%.

As for `O=C(N[C@@H](Cn1cc(Cl)c(=O)[nH]c1=O)C(=O)O)C1CC1` [CBK289649], the viability at 28.5 h, 10 µM came out at 88.3%.

In the case of `O=C(N[C@@H](Cn1ccc(=O)[nH]c1=O)C(=O)O)C1CCCCC1` [CBK289651], the viability at 28.5 h, 10 µM is 85.8%.

Regarding `N#Cc1ccc(CNC2(Cc3cc(-c4ccc(F)cc4)on3)COC2)cc1` [CBK289653], the viability at 28.5 h, 10 µM amounted to 87.3%.

Consider `Fc1ccc(-c2cc(CC3(NCc4ccc5c(c4)OCO5)COC3)no2)cc1` [CBK289654], for which the viability at 28.5 h, 10 µM was determined as 109%.

For the compound `O=C(c1cc(CC2(NCc3ccc(F)cc3)COC2)no1)N1CCCCC1` [CBK289657], the viability at 28.5 h, 10 µM turned out to be 92.4%.

As for `O=C(N[C@@H](Cn1cc(Cl)c(=O)[nH]c1=O)C(=O)O)C1CCC1` [CBK289659], the viability at 28.5 h, 10 µM is 89.2%.

Turning to `Oc1cccc(-c2cc(CC3(NCc4cnc5ccccc5c4)COC3)no2)c1` [CBK289662], the viability at 28.5 h, 10 µM was found to be 107%.

As to `CCc1cn(C[C@H](NC(=O)C2CCCC2)C(=O)O)c(=O)[nH]c1=O` [CBK289664], the viability at 28.5 h, 10 µM worked out at 106%.

On to `Cn1ccnc1CN1C(=O)CO[C@H]2CN(Cc3ccc4c(c3)OCO4)C[C@H]21` [CBK289665], for which the viability at 28.5 h, 10 µM was 90%.

For the compound `Cc1cn(C[C@H](NC(=O)c2cccc(F)c2)C(=O)O)c(=O)[nH]c1=O` [CBK289667], the viability at 28.5 h, 10 µM was found to be 109%.

For the compound `CCc1cn(C[C@H](NC(=O)c2ccco2)C(=O)O)c(=O)[nH]c1=O` [CBK289670], the viability at 28.5 h, 10 µM worked out at 86%.

Take `O=C1COC[C@H]([C@H](O)c2ccc(NC(=O)c3cnccn3)cc2)N1` [CBK289673]: the viability at 28.5 h, 10 µM stood at 104%.

On to `CCNC(=O)N1C[C@@H]2OCC(=O)N(Cc3ccccc3)[C@@H]2C1` [CBK289679], for which the viability at 28.5 h, 10 µM turned out to be 104%.

As to `CCNC(=O)N1C[C@@H]2OCC(=O)N(Cc3cccnc3)[C@@H]2C1` [CBK289682], the viability at 28.5 h, 10 µM amounted to 109%.

For `CCN1C(=O)COC[C@@H]1[C@H](O)c1ccc(NC(=O)C2CCC2)cc1` [CBK289686], the viability at 28.5 h, 10 µM was found to be 85.7%.

Take `CC(C)CN1C(=O)COC[C@@H]1[C@H](O)c1ccc(NC(=O)C2CCCCC2)cc1` [CBK289687]: the viability at 28.5 h, 10 µM is 106%.

As for `COc1ccccc1C(=O)Nc1ccc([C@@H](O)[C@H]2COCC(=O)N2)cc1` [CBK289688], the viability at 28.5 h, 10 µM amounted to 97.3%.

Consider `CS(=O)(=O)c1ccc(CN2C[C@@H]3OCC(=O)N(Cc4ccc(F)cc4)[C@@H]3C2)cc1` [CBK289690], for which the viability at 28.5 h, 10 µM is 119%.

In the case of `NC(=O)CN1C(=O)CO[C@H]2CN(Cc3ccccc3F)C[C@H]21` [CBK289693], the viability at 28.5 h, 10 µM turned out to be 114%.

In the case of `CC1(C)[C@H](Cc2cc(COc3ccccc3)on2)C[C@@H]1NC1CCOCC1` [CBK289694], the viability at 28.5 h, 10 µM was found to be 96.5%.

As for `CCN1C(=O)COC[C@@H]1[C@H](O)c1ccc(NC(=O)c2ccco2)cc1` [CBK289695], the viability at 28.5 h, 10 µM was determined as 85.3%.

Take `COc1ccc(-c2cc(CC3(NCc4ccccc4O)COC3)no2)cc1` [CBK289697]: the viability at 28.5 h, 10 µM was determined as 91.3%.

Consider `O=C(c1ccccn1)N1C[C@@H]2OCC(=O)N(Cc3ccccc3)[C@@H]2C1` [CBK289698], for which the viability at 28.5 h, 10 µM stood at 84.3%.

For the compound `CC(=O)N1CCC(N[C@H]2C[C@@H](Cc3cc(CN4CCCCC4)on3)C2(C)C)CC1` [CBK289699], the viability at 28.5 h, 10 µM is 89%.

Regarding `COCc1cc(CC2(NCc3ccc(NC(C)=O)cc3)COC2)no1` [CBK289701], the viability at 28.5 h, 10 µM turned out to be 110%.

With `CCCCc1cc(C[C@@H]2C[C@H](NS(C)(=O)=O)C2(C)C)no1` [CBK289702], the viability at 28.5 h, 10 µM was 105%.

For the compound `CC1(C)[C@H](Cc2cc(COc3ccccc3)on2)C[C@@H]1NS(C)(=O)=O` [CBK289703], the viability at 28.5 h, 10 µM was 89.5%.

Regarding `COCCN1C(=O)CO[C@H]2CN(C(=O)Nc3ccc(F)cc3)C[C@H]21` [CBK289705], the viability at 28.5 h, 10 µM was 85.3%.

Turning to `Oc1ccc(Cn2ccnc2)c2cccnc12` [CBK291102], the viability at 28.5 h, 10 µM was determined as 89.3%.

In the case of `Cc1cc(Cn2nnnc2-c2ccncc2)cc(C)c1O` [CBK291103], the viability at 28.5 h, 10 µM amounted to 104%.

Take `CC(=O)N1CCc2cc(C(=O)CN3CCOCC3)ccc21` [CBK291105]: the viability at 28.5 h, 10 µM was found to be 89.2%.

The values are drawn from paper PMC12040169 (PLOS Biology, 2025).
